Common to all, as to format: cell-based
What all share (conditions): Cos-7, mean±s.e.m., read-out: pEC50 mutant (converted)

Assay [1] has as its target T1, CT(a) receptor, W79A mutant (Homo sapiens, UniProt P30988, W79A).
T1 sequence (P30988 25-474 W79A): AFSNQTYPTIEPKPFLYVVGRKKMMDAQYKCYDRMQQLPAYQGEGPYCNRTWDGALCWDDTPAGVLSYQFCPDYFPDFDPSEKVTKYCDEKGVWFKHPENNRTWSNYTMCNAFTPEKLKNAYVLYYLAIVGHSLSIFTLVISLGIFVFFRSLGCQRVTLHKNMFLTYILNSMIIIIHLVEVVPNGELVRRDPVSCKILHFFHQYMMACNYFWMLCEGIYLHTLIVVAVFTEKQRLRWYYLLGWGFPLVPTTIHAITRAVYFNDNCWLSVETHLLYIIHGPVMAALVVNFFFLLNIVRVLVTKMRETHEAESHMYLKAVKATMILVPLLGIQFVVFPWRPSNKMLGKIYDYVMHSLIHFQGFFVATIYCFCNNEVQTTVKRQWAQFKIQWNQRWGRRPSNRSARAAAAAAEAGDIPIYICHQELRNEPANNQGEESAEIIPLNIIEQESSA
Nature of the assay: cAMP assay, W79A CT(a). From the text: (§1) This is the insert-negative form of the receptor and is referred to as hCT(a), to comply with International Union of Pharmacology guidelines. Myc tagged RAMP1 and untagged RAMP3 constructs were used for AMY receptor experiments.
(§2) Primers were purchased from Integrated DNA Technologies Ltd (Coralville, IA, USA). Kapa HiFi readymix (Kapa Biosystems, Wilmington, MA, USA) or Primestar HS enzymes (TaKaRa Bio, Kyoto, Japan) were substituted for Pfu polymerase.
(§3) After stimulation the reaction was stopped by removing media and adding 50 μl per well of ice-cold absolute ethanol. Plates were stored at −30 °C for up to 4 days before the measurement of cAMP was performed.

Assay [2] addresses T2, CT(a) receptor, F102A mutant (Homo sapiens, UniProt P30988, F102A).
T2 sequence (P30988 25-474 F102A): T1 sequence (P30988 25-474 W79A) with A55W, F78A
Nature of the assay: cAMP assay, F102A CT(a).
From the text: as §1, §2, §3

Assay [3] deals with T3, CT(a) receptor, D101A mutant (Homo sapiens, UniProt P30988, D101A).
T3 sequence (P30988 25-474 D101A): T1 sequence (P30988 25-474 W79A) with A55W, D77A
Nature of the assay: cAMP assay, D101A CT(a).
From the text: as §1, §2, §3

For assay [4], the target named is T4, CT(a) receptor, W128A mutant (Homo sapiens, UniProt P30988, W128A).
T4 sequence (P30988 25-474 W128A): T1 sequence (P30988 25-474 W79A) with A55W, W104A
The assay can be described thus: cAMP assay, W128A CT(a).
From the text: as §1, §2, §3

SMILES strings stand for the structures. Numbering of substitutions follows the chain as printed.

Consider `CC(C)C[C@H](NC(=O)CNC(=O)[C@H](C)NC(=O)[C@H](CC(C)C)NC(=O)[C@H](CCCNC(=N)N)NC(=O)[C@H](Cc1cnc[nH]1)NC(=O)[C@@H](NC(=O)[C@@H](NC(=O)[C@@H]1CSSC[C@H](NC(=O)[C@H](C)N)C(=O)N[C@@H](CC(=O)O)C(=O)N[C@@H]([C@@H](C)O)C(=O)N[C@@H](C)C(=O)N[C@@H]([C@@H](C)O)C(=O)N1)C(C)C)[C@@H](C)O)C(=O)N[C@@H](CC(C)C)C(=O)N[C@@H](CO)C(=O)N[C@@H](CCCNC(=N)N)C(=O)N[C@@H](CO)C(=O)NCC(=O)NCC(=O)N[C@H](C(=O)N[C@H](C(=O)N[C@@H](CCCCN)C(=O)N[C@@H](CC(N)=O)C(=O)N[C@@H](CC(N)=O)C(=O)N[C@@H](Cc1ccccc1)C(=O)N[C@H](C(=O)N1CCC[C@H]1C(=O)N[C@H](C(=O)N[C@@H](CC(N)=O)C(=O)N[C@H](C(=O)NCC(=O)N[C@@H](CO)C(=O)N[C@@H](CCCCN)C(=O)N[C@@H](C)C(=O)N[C@@H](Cc1ccccc1)C(N)=O)C(C)C)[C@@H](C)O)C(C)C)C(C)C)C(C)C` [hαCGRP, human αCGRP], for which the EC50 in assay [1] was 447 nM; in assay [2] it was 501 nM; in assay [3], 309 nM; in assay [4], 182 nM.

The record behind these values is PMC4869360, “An allosteric role for receptor activity-modifying proteins in defining GPCR pharmacology” (Cell Discovery, 2016).
